We go through two compounds from the NIST ThermoML archive (doi:10.1021/je101131x).

Numbers after ± are expanded uncertainties.

The conditions of the series: Liquid.

Consider `CC(=O)O` [acetic acid], for which the vapor or sublimation pressure – broadly, the pressure of vapour in equilibrium with the condensed phase – (323.15 K) is listed as 7.567 ± 0.41 kPa; the “vapor or sublimation pressure” value (333.15 K) turned out to be 12.04 ± 0.51 kPa; the “vapor or sublimation pressure” value (343.15 K) is listed as 18.66 ± 0.67 kPa; the “vapor or sublimation pressure” value (353.15 K) amounted to 28.2 ± 0.89 kPa.

`CCCOC(C)=O` [propyl ethanoate]: the “vapor or sublimation pressure” value worked out at 16.09 ± 0.61 kPa (323.15 K), 24.01 ± 0.8 kPa (333.15 K), 34.99 ± 1.1 kPa (343.15 K) and 49.92 ± 1.4 kPa (353.15 K).
